# Measured values from US8377974B2 (Millennium Pharmaceuticals, Inc., priority 2004, dated 2013).
# Target: T1, human plasma protein factor Xa (Homo sapiens, UniProt P00742)
# T1 construct: measure proteolytic activity of the enzyme (factor Xa); purchased Haematologic Technologies (Essex Junction, Vt.); host or cells: human plasma
# Test: Factor Xa IC50 determination: cleavage of paranitroanilide substrate S-2765 in 96-well plates
# Assay type: biochemical
# Conditions: fXa 1 nM, S-2765 100 μM, Tris buffered saline pH 7.4, room temperature
# Excerpt: This example illustrates methods for evaluating the compounds of the invention, along with results obtained for such assays. The in vitro and in vivo Factor Xa isoform activities of the inventive compounds can be determined by various procedures known in the art, such as a test for their ability to inhibit the activity of the Factor Xa isoform. […] The IC50 value is the concentration (in nM) of the compound required to provide 50% inhibition of Factor Xa isoform.
# An in vitro assay for detecting and measuring inhibition activity against Factor Xa is as follows:
# The substrate S-2765 (Z-D-Arg-Gly-Arg-pNA.HCl) was obtained from Diapharma (West Chester, Ohio).
# The human plasma protein factor Xa was purchased from Haematologic Technologies (Essex Junction, Vt.).
# All assays, which are performed in 96-well microtiter plates, measure proteolytic activity of the enzyme (factor Xa) by following cleavage of paranitroanilide substrate. The assay buffer used for proteolytic assays was Tris buffered saline (20 mM Tris, 150 mM NaCl, 5 mM CaCl2, 0.1% Bovine serum albumin (BSA), 5% Dimethly Sulfoxide (DMSO) pH 7.4). In a 96-well microtiter plate, inhibitor was serially diluted to give a range of concentrations from 0.01 nM to 10 μM (final). Duplicate sets of wells were assayed and control wells without inhibitor were included. Enzyme was added to each well, (fXa concentration=1 nM), the plate was shaken for 5 seconds and then incubated for 5 minutes at room temperature. S2765 was added (100 μM final) and the plate was shaken for 5 seconds (final liquid volume in each well was 200 μl). The degree of substrate hydrolysis was measured at 405 nm on a Thermomax plate reader (Molecular Devices, Sunnyvale, Calif.) for 2 minutes. The initial velocities (mOD/min), for each range of inhibitor concentrations, were fitted to a four parameter equation using Softmax data analysis software. The parameter C, derived from the resulting curve-fit, corresponded to the concentration for half maximal inhibition (IC50).
# T1 sequence (P00742 235-488 limits assumed): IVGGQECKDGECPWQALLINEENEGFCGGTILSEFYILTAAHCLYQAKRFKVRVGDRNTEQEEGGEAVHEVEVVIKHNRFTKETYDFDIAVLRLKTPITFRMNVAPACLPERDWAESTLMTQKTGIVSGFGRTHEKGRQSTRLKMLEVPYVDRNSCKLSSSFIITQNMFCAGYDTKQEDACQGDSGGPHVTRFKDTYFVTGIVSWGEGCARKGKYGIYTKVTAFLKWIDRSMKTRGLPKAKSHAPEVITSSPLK
# T1 sequence (P00742 41-179 partner limits assumed): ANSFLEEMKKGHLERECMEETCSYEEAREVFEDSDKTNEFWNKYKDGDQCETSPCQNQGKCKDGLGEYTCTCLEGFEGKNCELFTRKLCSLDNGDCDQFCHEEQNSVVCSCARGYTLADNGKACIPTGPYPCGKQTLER
row,Compound,IC50 [nM]
1,"CN(Cc1cc(-c2ccc(C3=NCCN3C)cc2)no1)C(=O)c1ccc(Cl)s1 [Example 36, 5-Chloro-thiophene-2-carboxylic acid methyl-{3-[4-(1-methyl-4,5-dihydro-1H-imidazol-2-yl)-phenyl]-isoxazol-5-ylmethyl}-amide]",≥ 500
2,"C[C@@H](NC(=O)c1ccc(Cl)s1)c1cc(-c2ccc(C3=NCCN3C)cc2)no1 [Example 50, (R)-5-Chloro-thiophene-2-carboxylic acid (1-{3-[4-(1-methyl-4,5-dihydro-1H-imidazol-2-yl)-phenyl]-isoxazol-5-yl}-ethyl)-amide]",≤ 100
3,"C[C@@H](NC(=O)c1ccc(Cl)s1)c1cc(-c2ccc(C(=N)N3CCCC3)cc2)no1 [Example 51, (R)-5-Chloro-thiophene-2-carboxylic acid (1-{3-[4-(imino-pyrrolidin-1-yl-methyl)-phenyl]-isoxazol-5-yl}-ethyl)-amide]",≤ 100
4,"C[C@@H](NC(=O)c1ccc(Cl)s1)c1cc(-c2ccc(C(=N)N3CCCCC3)cc2)no1 [Example 52, (R)-5-Chloro-thiophene-2-carboxylic acid (1-{3-[4-(imino-piperidin-1-yl-methyl)-phenyl]-isoxazol-5-yl}-ethyl)-amide]",≥ 500
5,"C[C@H](NC(=O)c1ccc(Cl)s1)c1cc(-c2ccc(C3=NCCN3C)cc2)no1 [Example 54, (S)-5-Chloro-thiophene-2-carboxylic acid (1-{3-[4-(1-methyl-4,5-dihydro-1H-imidazol-2-yl)-phenyl]-isoxazol-5-yl}-ethyl)-amide]",≥ 500
6,"C[C@H](NC(=O)c1ccc(Cl)s1)c1cc(-c2ccc(C(=N)N3CCCC3)cc2)no1 [Example 55, (S)-5-Chloro-thiophene-2-carboxylic acid (1-{3-[4-(imino-pyrrolidin-1-yl-methyl)-phenyl]-isoxazol-5-yl}-ethyl)-amide]",≥ 500
7,"C[C@H](NC(=O)c1ccc(Cl)s1)c1cc(-c2ccc(C(=N)N3CCCCC3)cc2)no1 [Example 56, (S)-5-Chloro-thiophene-2-carboxylic acid (1-{3-[4-(imino-piperidin-1-yl-methyl)-phenyl]-isoxazol-5-yl}-ethyl)-amide]",≤ 100
8,"CN(C)C(=N)c1ccc(C2=NOC(C)(CNC(=O)c3ccc(Cl)s3)C2)cc1 (stereo not shown) [Example 57, 5-Chloro-thiophene-2-carboxylic acid {3-[4-(N,N-dimethyl-carbamimidoyl)-phenyl]-5-methyl-4,5-dihydro-isoxazol-5-ylmethyl}-amide]",≤ 100
9,"CN1CCN=C1c1ccc(C2=NOC(C)(CNC(=O)c3ccc(Cl)s3)C2)cc1 (stereo not shown) [Example 58, 5-Chloro-thiophene-2-carboxylic acid {5-methyl-3-[4-(1-methyl-4,5-dihydro-1H-imidazol-2-yl)-phenyl]-4,5-dihydro-isoxazol-5-ylmethyl}-amide]",≤ 100
10,"CC1(CNC(=O)c2ccc(Cl)s2)CC(c2ccc(C(=N)N3CCCC3)cc2)=NO1 (stereo not shown) [Example 59, 5-Chloro-thiophene-2-carboxylic acid {3-[4-(imino-pyrrolidin-1-yl-methyl)-phenyl]-5-methyl-4,5-dihydro-isoxazol-5-ylmethyl}-amide]",≤ 100
11,"CC1(CNC(=O)c2ccc(Cl)s2)CC(c2ccc(C(=N)N3CCCCC3)cc2)=NO1 (stereo not shown) [Example 60, 5-Chloro-thiophene-2-carboxylic acid {3-[4-(imino-piperidin-1-yl-methyl)-phenyl]-5-methyl-4,5-dihydro-isoxazol-5-ylmethyl}-amide]",≤ 100
12,"CCOC(=O)C1CCN(C(=N)c2ccc(C3=NOC(C)(CNC(=O)c4ccc(Cl)s4)C3)cc2)CC1 (stereo not shown) [Example 61, 1-{[4-(5-{[(5-Chloro-thiophene-2-carbonyl)-amino]-methyl}-5-methyl-4,5-dihydro-isoxazol-3-yl)-phenyl]-imino-methyl}-piperidine-4-carboxylic acid ethyl ester]",≤ 100

# Results, then the compound that gave them:
row,IC50 [nM],Compound
1,100 to 500,"C#CCN(C)C(=N)c1ccc(-c2cc(CNC(=O)c3ccc(Cl)s3)on2)cc1 [Example 33, 5-Chloro-thiophene-2-carboxylic acid {3-[4-(N-methyl-N-prop-2-ynyl-carbamimidoyl)-phenyl]-isoxazol-5-ylmethyl}-amide]"
2,≥ 500,"CNC(=N)c1ccc(-c2cc(CNC(=O)c3ccc(Cl)s3)on2)cc1 [Example 34, 5-Chloro-thiophene-2-carboxylic acid {3-[4-(N-methylcarbamimidoyl)-phenyl]-isoxazol-5-ylmethyl}-amide]"
3,≥ 500,"CN(C)C(=N)c1ccc(-c2cc(CN(C)C(=O)c3ccc(Cl)s3)on2)cc1 [Example 35, 5-Chloro-thiophene-2-carboxylic acid {3-[4-(N,N-dimethyl-carbamimidoyl)-phenyl]-isoxazol-5-ylmethyl}-methyl-amide]"
4,≥ 500,"CN(Cc1cc(-c2ccc(C(=N)N3CCCC3)cc2)no1)C(=O)c1ccc(Cl)s1 [Example 37, 5-Chloro-thiophene-2-carboxylic acid {3-[4-(imino-pyrrolidin-1-yl-methyl)-phenyl]-isoxazol-5-ylmethyl}-methyl-amide]"
5,≥ 500,"CN(Cc1cc(-c2ccc(C(=N)N3CCCCC3)cc2)no1)C(=O)c1ccc(Cl)s1 [Example 38, 5-Chloro-thiophene-2-carboxylic acid {3-[4-(imino-piperidin-1-yl-methyl)-phenyl]-isoxazol-5-ylmethyl}-methyl-amide]"
6,≥ 500,"CCOC(=O)C1CCN(C(=N)c2ccc(-c3cc(CN(C)C(=O)c4ccc(Cl)s4)on3)cc2)CC1 [Example 39, 1-{[4-(5-{[(5-Chloro-thiophene-2-carbonyl)-methyl-amino]-methyl}-isoxazol-3-yl)-phenyl]-imino-methyl}-piperidine-4-carboxylic acid ethyl ester]"
7,≥ 500,"CN(Cc1cc(-c2ccc(C(=N)N3CCC3)cc2)no1)C(=O)c1ccc(Cl)s1 [Example 40, 5-Chloro-thiophene-2-carboxylic acid {3-[4-(azetidin-1-yl-imino-methyl)-phenyl]-isoxazol-5-ylmethyl}-methyl-amide]"
8,≥ 500,"CN(Cc1cc(-c2ccc(C(N3CCC3)=[N+]3CCC3)cc2)no1)C(=O)c1ccc(Cl)s1 [Example 41, 5-Chloro-thiophene-2-carboxylic acid {3-[4-(azetidin-1-yl-azetidin-1-ylidene-methyl)-phenyl]-isoxazol-5-ylmethyl}-methyl-amide]"
9,≥ 500,"CCN(C)C(=N)c1ccc(-c2cc(CN(C)C(=O)c3ccc(Cl)s3)on2)cc1 [Example 42, 5-Chloro-thiophene-2-carboxylic acid {3-[4-(N-ethyl-N-methyl-carbamimidoyl)-phenyl]-isoxazol-5-ylmethyl}-methyl-amide]"
10,≥ 500,"CCCN(C)C(=N)c1ccc(-c2cc(CN(C)C(=O)c3ccc(Cl)s3)on2)cc1 [Example 43, 5-Chloro-thiophene-2-carboxylic acid methyl-{3-[4-(N-methyl-N-propyl-carbamimidoyl)-phenyl]-isoxazol-5-ylmethyl}-amide]"
11,≥ 500,"CN(C)CCN(C)C(=N)c1ccc(-c2cc(CN(C)C(=O)c3ccc(Cl)s3)on2)cc1 [Example 44, 5-Chloro-thiophene-2-carboxylic acid (3-{4-[N-(2-dimethylamino-ethyl)-N-methyl-carbamimidoyl]-phenyl}-isoxazol-5-ylmethyl)-methyl-amide]"
12,≥ 500,"CN(Cc1cc(-c2ccc(C(=N)N3CCC(C(N)=O)CC3)cc2)no1)C(=O)c1ccc(Cl)s1 [Example 45, 1-{[4-(5-{[(5-Chloro-thiophene-2-carbonyl)-methyl-amino]-methyl}-isoxazol-3-yl)-phenyl]-imino-methyl}-piperidine-4-carboxylic acid amide]"
13,≥ 500,"COCCN(C)C(=N)c1ccc(-c2cc(CN(C)C(=O)c3ccc(Cl)s3)on2)cc1 [Example 46, 5-Chloro-thiophene-2-carboxylic acid (3-{4-[N-(2-methoxy-ethyl)-N-methyl-carbamimidoyl]-phenyl}-isoxazol-5-ylmethyl)-methyl-amide]"
14,≥ 500,"C#CCN(C)C(=N)c1ccc(-c2cc(CN(C)C(=O)c3ccc(Cl)s3)on2)cc1 [Example 47, 5-Chloro-thiophene-2-carboxylic acid methyl-{3-[4-(N-methyl-N-prop-2-ynyl-carbamimidoyl)-phenyl]-isoxazol-5-ylmethyl}-amide]"
15,≤ 100,"CNC(=N)c1ccc(-c2cc(CN(C)C(=O)c3ccc(Cl)s3)on2)cc1 [Example 48, 5-Chloro-thiophene-2-carboxylic acid methyl-{3-[4-(N-methylcarbamimidoyl)-phenyl]-isoxazol-5-ylmethyl}-amide]"
16,≤ 100,"C[C@@H](NC(=O)c1ccc(Cl)s1)c1cc(-c2ccc(C(=N)N(C)C)cc2)no1 [Example 49, (R)-5-Chloro-thiophene-2-carboxylic acid (1-{3-[4-(N,N-dimethyl-carbamimidoyl)-phenyl]-isoxazol-5-yl}-ethyl)-amide]"
